Measurements taken from PubChem BioAssay (NCI).
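In this assay, cells in 96-well plates receive the compound at five concentrations for 48 hours. Endpoints are linearly interpolated between the surrounding concentrations. GI50 marks 50% less growth. TGI: total growth inhibition.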

Legend:
Assay in all cases: DTP human tumour cell line panel, 48 h
A549 NSCLC = system: A549 NSCLC
HL-60(TB) leukemia = system: HL-60(TB) leukemia
SF-268 CNS = system: SF-268 CNS
K-562 leukemia = system: K-562 leukemia
TK-10 renal = system: TK-10 renal
OVCAR-5 ovarian = system: OVCAR-5 ovarian
RPMI-8226 leukemia = system: RPMI-8226 leukemia
SR leukemia = system: SR leukemia
CCRF-CEM leukemia = system: CCRF-CEM leukemia
SNB-19 CNS = system: SNB-19 CNS

Compound | TGI (A549 NSCLC) [µM] | TGI (HL-60(TB) leukemia) [µM] | TGI (SF-268 CNS) [µM] | TGI (K-562 leukemia) [µM] | TGI (TK-10 renal) [µM] | TGI (OVCAR-5 ovarian) [µM] | TGI (RPMI-8226 leukemia) [µM] | TGI (SR leukemia) [µM] | TGI (CCRF-CEM leukemia) [µM] | GI50 (A549 NSCLC) [µM] | GI50 (HL-60(TB) leukemia) [µM] | GI50 (SF-268 CNS) [µM] | GI50 (K-562 leukemia) [µM] | GI50 (TK-10 renal) [µM] | GI50 (OVCAR-5 ovarian) [µM] | GI50 (SNB-19 CNS) [µM] | TGI (SNB-19 CNS) [µM] | GI50 (RPMI-8226 leukemia) [µM] | GI50 (SR leukemia) [µM] | GI50 (CCRF-CEM leukemia) [µM]
N/N=C(\Cc1ccccc1)NN=C(N)N | > 100 | > 100 | > 100 | > 100 | > 100 | > 100 | > 100 | > 100 | > 100 |  |  |  |  |  |  |  |  |  |  | 
COC(=O)[C@@H]1CCCN1C(=O)[C@@H]1CCCN1C(=O)[C@@H](Cc1c[nH]c2ccccc12)NC(=S)Nc1cc(C(F)(F)F)cc(C(F)(F)F)c1 | > 100 | > 100 | > 100 | > 100 | 87.8 | 73 | > 100 | 6.44 | > 100 | 5.31 | 4.26 | 6.44 | 3.98 | 10.9 | 15 | 16.2 | > 100 | 3.34 | 2.39 | 3.39
CC(C)(Br)C(=O)/C=C/c1ccccc1 | 56.7 | 29 | 51.2 | > 100 | 37.9 | 19.7 | 3.14 | > 25.6 | 1.63 |  |  |  |  |  |  |  | 78.3 |  |  | 
O=C(Nc1cc(Cl)c(Cl)cc1Cl)C(=O)C(C(=O)c1ccc(Cl)c(Cl)c1)C1OC(=O)c2ccccc21 (centres undefined) | > 100 | 52 | 41.8 | 63.9 | 52 | 23.6 | 86.7 | > 100 | 49.5 |  |  |  |  |  |  |  | 49.8 |  |  | 
Nc1nc(Nc2cccc(F)c2)nc2ccccc12 | > 100 | 68.4 | > 100 | > 100 | 90.3 | 43.5 | 71.1 | 80.7 | > 100 | 36.9 | 25.5 | 28.5 | 24.9 | 39.3 | 17.4 | 35.3 | > 100 | 23.1 | 24.7 | 24.6
O=c1oc2ccc(Cl)cc2c(=O)n1-c1ccc(I)cc1F | > 100 | 1.36 | 4.11 | > 100 | 11.4 | > 100 | 0.436 | 5.97 | 5.14 | 1.01 | 0.286 | 0.26 | 0.176 | 0.605 | 3.58 | 0.206 | > 100 | 0.0907 | 0.228 | 0.702
C=C(C)CCC(C)N1CCC(N2CCC(C(=O)NCCc3ccccc3)CC2)CC1 (centres undefined) | > 100 | > 100 | > 100 | 34.2 | 69.3 | > 100 | > 100 | 82.1 | > 100 | 32.2 | 25.7 | 98 | 9.9 | 18.5 | 78.9 | 58.9 | > 100 | 10.1 | 12.3 | 19.9
CCN1C(=O)N(CC)C2C1NN=c1s/c(=C3\C(=O)N(C)c4ccccc43)c(=O)n12 (centres undefined) | > 100 | 2.05 | > 100 | > 100 | > 74.3 | > 100 | 12.6 | > 100 | > 100 | 1.83 | 0.434 | 10.8 | 0.352 | 11.2 | 3.3 | 2.89 | > 100 | 0.89 | 0.382 | 1.37
C[C@H](CS(C)(=O)=O)Nc1ncc2cc(Oc3ccc(F)cc3F)c(=O)n(C)c2n1 | > 25 | > 25 | > 25 | > 25 | > 25 | > 25 | > 25 | > 25 | > 25 | > 25 | > 25 | > 25 | > 25 | > 25 | > 25 | > 25 | > 25 | > 25 | > 25 | > 25
Fc1ccc(Nc2nccc(-c3c(-c4ccc(C(F)(F)F)cc4)nn4ncccc34)n2)cc1F | > 25 | > 25 | > 25 | > 25 | > 25 | > 25 | > 25 | > 25 | > 25 | > 25 | > 25 | > 25 | > 25 | > 25 | > 25 | > 25 | > 25 | > 25 | > 25 | > 25
Fc1ccc(Nc2nc(NCCNc3ccnc4cc(Cl)ccc34)nc(N3CCOCC3)n2)cc1 | 25.1 | 4.89 | 20.5 | 10.3 | 22.7 | 32.1 | 14.6 | 7.6 | 16.3 | 10.5 | 1.8 | 6.85 | 2.91 | 10.3 | 17.6 | 12.4 | 25.9 | 3.15 | 2.44 | 0.457
O=[N+]([O-])c1ccc(CS(=O)Cc2ccccc2)cc1 (centres undefined) | > 100 | > 100 | > 100 | > 100 | > 100 | > 100 | > 100 | > 100 | > 100 |  |  |  |  |  |  |  | > 100 |  |  | 
O=C1c2ccccc2C(=O)C1C(c1ccc([N+](=O)[O-])cc1)C1C(=O)c2ccccc2C1=O | > 100 | > 100 | 73.6 | > 100 | > 100 | > 100 | > 100 | > 100 | > 100 |  |  |  |  |  |  |  | > 100 |  |  | 
CC(=O)NC(CCCN(Cc1ccccc1)C(=O)N(CCCl)N=O)C(=O)NCc1ccccc1 (centres undefined) | > 100 | 57.1 | > 100 | > 100 | > 100 | > 100 | > 100 | > 88.8 | > 100 |  |  |  |  |  |  |  | > 100 |  |  | 
CN(C)c1ccc(N=Nc2c([O-])ccc3ccccc23)cc1.[C-]#[O+].[C-]#[O+].[Ir] | > 69.3 | > 46.6 | 76.6 | > 100 | 51.7 | > 58.7 | > 65.1 | 57.7 | 39.9 | > 46.6 | 10.6 | 26.9 | 29.4 | 23.8 | > 42.1 | > 100 | > 100 | 22.7 | 17.9 | 8.08
